This is an account of results in US11078222B2, “Hydroxybenzoic acid derivatives, methods and uses thereof” (UNiVERSIDADE DO PORTO, priority 2016, dated 2021).

For orientation: IC50 means the midpoint of a concentration-inhibition curve. A high value points to lower potency.

Data set [1] in a line: Redox potential by differential pulse and cyclic voltammetry, glassy carbon electrode. It is filed as physicochemical. The conditions noted are these: physiological pH 7.4. As to the method:
In an embodiment, the oxidative behaviour of the parent antioxidants (protocatechuic and gallic acids) and AntiOxBENs was evaluated at physiological pH 7.4, by differential pulse and cyclic voltammetry, using a glassy carbon working electrode. […] For pyrogallol derivatives (gallic acid, AntiOxBEN2, AntiOxBEN3), a significant decrease in redox potentials was observed (Ep=0.163-0.168 V) (Table 1).
In an embodiment, the electrochemical analytical data was obtained using a computer controlled potentiostat Autolab PGSTAT302N (Metrohm Autolab, Utrecht, Netherlands). Generally, cyclic voltammetry (CV) data was acquired at a scan rate of 50 mVs^−1. Differential pulse voltammetry (DPV) results were acquired at a step potential of 4 mV, pulse amplitude of 50 mV and scan rate of 8 mVs^−1. The electrochemical signals were monitored by the General Purpose Electrochemical System (GPES) version 4.9, software package. All electrochemical experiments were performed at room temperature in an electrochemical cell that was placed in a Faraday cage in order to minimize the contribution of background noise to the analytical signal.
In an embodiment, the process of evaluation of AntiOxBENs redox properties was conducted as follows: stock solutions of each compound (10 mM) were prepared by dissolving the appropriate amount in ethanol. The voltammetric working solutions were prepared in the electrochemical cell, at a final concentration of 0.1 mM. The […] supporting electrolyte was prepared by diluting 6.2 mL of 0.2 M dipotassium hydrogen phosphate and 43.8 mL of 0.2 M potassium dihydrogen phosphate to 100 mL. Voltammetric data was acquired in a three-electrode system consisting of a glassy carbon electrode (GCE, d=2 mm) as working electrode, a counter electrode of platinum wire and a saturated Ag/AgCl reference electrode. In an embodiment, the evaluation of AntiOxBENs lipophilic properties was performed as follows: the electrochemical cell was a four-electrode system with arrays of micro liquid-liquid interfaces (μITIES) containing two Ag/AgCl reference electrodes and two counter electrodes of Pt, one in each phase. The microporous membrane was sealed with a fluorosilicone sealant (Dow Corning 730) onto a glass cylinder which was filled with 4.0 mL of the aqueous phase, where the aliquots of AntiOxBENs solutions were added. The membrane was then immersed into the organic phase contained in the cell. The organic phase reference solution (a 2 mM BTPPACI+2 mM NaCl aqueous solution) was mechanically stabilized The aqueous supporting electrolyte solution was a Tris-HCl buffer 10 mM pH 7.0.

The subject of data set [2] is human hepatocellular carcinoma cells (HepG2). As to the kind of experiment: Cytotoxicity, SRB method. Type of data set: cell-based. As for the experimental part: In an embodiment, and as an example, the cytotoxicity of AntiOxBENs was assessed using monolayer cultures of human hepatocytes from hepatocellular carcinoma (HepG2) and SRB method (FIG. 8).
In an embodiment, the cytotoxicity profile of AntiOxBENs was evaluated in human hepatocellular carcinoma HepG2 cells. Human hepatocellular carcinoma HepG2 cells were cultured in high-glucose medium composed by Dulbecco's modified Eagle's medium (DMEM; D5648) supplemented with sodium pyruvate (0.11 g/L), sodium bicarbonate (1.8 g/L) and 10% fetal bovine serum (FBS) and 1% of antibiotic penicillin-streptomycin 100× solution. Cells were maintained at 37° C. in a humidified incubator with 5% CO2. HepG2 cells were seeded at density of 4×10^4 cells/mL and grown for 24 hours before treatment.
In an embodiment the cytotoxicity screening was performed as follows: cells were placed on 48-well plate (2×10^4 cells/500 μL) and then were incubated during 48 hour with AntiOxBENs concentrations ranging 25 μM to 500 μM. After incubation, sulforhodamine B (SRB) assay was used for cell density determination based on the measurement of cellular protein content. Briefly, after incubation, the medium was removed and wells rinsed with PBS […]. Cells were fixed by adding 1% acetic acid in 100% methanol for at least 2 hours at −20° C. Later, the fixation solution was discarded and the plates were dried in an oven at 37° C. Two hundred and fifty microliters of 0.5% SRB in 1% acetic acid solution was added and incubated at 37° C. for 1 h. The wells were then washed with 1% acetic acid in water and dried. Then, 500 μl of Tris (pH 10) was added and the plates were stirred for 15 min. Finally, 200 μl of each supernatant was transferred in 96-well plates and optical density was measured at 540 nm. Data are means±SEM of four independent experiments and the results are expressed as percentage of control (control=100%), which represents the cell density without any treatment in the respective time point.

Data set [3] can be described thus: DPPH radical scavenging activity (total antioxidant capacity). Type of data set: biochemical. The conditions noted are these: ethanol, 515 nm, 45 min. A general note: Loss of DPPH colour is used to gauge radical scavenging.
Procedure: (§1) The radical scavenging activity of AntiOxClNs was evaluated by means of total antioxidant capacity assays based on DPPH., ABTS.^+ and GO. radicals. All these methods involved the spectrophotometric measurement of the absorbance decrease resulting from radical (DPPH., ABTS.^+ or GO.) deactivation with an antioxidant. The results were expressed in IC50, which is defined as the minimum antioxidant concentration necessary to reduce the amount of radical by 50%. Antioxidant assays were performed in a multiplate reader (Powerwave XS Microplate Reader) from Bio Tech instruments.
A DPPH ethanolic solution (6.85 mM) was also prepared and then diluted to reach the absorbance of 0.72±0.02 at 515 nm. Each compound solution (20 μL) was added to 180 μL of DPPH. solution in triplicate, and the absorbance at 515 nm was recorded minutely over 45 minutes. […] Dose-response curves were established for the determination of IC50 values.
Data set [4] can be described thus: ABTS radical cation scavenging activity. Type of data set: biochemical. The conditions noted are these: ethanol, 15 min.
Procedure: as §1
In an embodiment, the ABTS.^+ scavenging activity was evaluated as follows: ethanolic solutions of the test compounds with increasing concentrations (range between 10 μM and 500 μM) were prepared. ABTS. radical cation solution was obtained by addition of 150 mM aqueous potassium persulfate solution (163 μL) to 10 mL of 7 mM aqueous ABTS solution followed by storage in the dark at room temperature for 16 h (2.45 mM final concentration). The solution was then diluted in ethanol to reach the absorbance of 0.72±0.02. After addition of the compound (20 μL), in triplicate, to ABTS.^+ solution (180 μL) the spectrophotometric measurement was carried out each minute over 15 minutes. […] Dose-response curves were established for the determination of IC50 values.
Data set [5] can be described thus: GO radical scavenging activity. It is filed as biochemical. The conditions noted are these: ethanol, 428 nm, 30 min.
Procedure: The selected total antioxidant capacity (TAC) assays (DPPH, ABTS and GO) involved the spectrophotometric measurement of the radical absorbance decrease as a result of an in situ radical deactivation by an antioxidant.
as §1
In an embodiment, the GO. scavenging activity was evaluated as follows: solutions of test compounds with concentrations from 10 μM to 100 μM were prepared in ethanol. An ethanolic solution of 5 mM GO. was prepared and diluted to reach the absorbance of 1.00±0.02 at 428 nm. The addition (20 μL) in triplicate of compound solution to GO. solution (180 μL) was followed by absorbance measurement at 428 nm over 30 minutes, in the dark, at room temperature. […] Dose-response curves were established for the determination of IC50 values.
Data set [6] deals with rat liver mitochondria (RLM). Put plainly: Mitochondrial uptake by energised RLM, TPP-selective electrode. Type of data set: in vitro ADME. As to the method:
In an embodiment, and as an example, the mitochondrial uptake of some AntiOxBENs was assessed in isolated rat liver mitochondria (RLM) in response to the membrane potential. AntiOxBENs can accumulate inside mitochondria driven by the Δψ (FIG. 3A). Different AntiOxBENs accumulation outlines within the mitochondrial matrix have been measured. […] The following ranking order was attained: AntiOxBEN2<AntiOxBEN1<AntiOxBEN3.
In an embodiment, the AntiOxBENs mitochondria uptake by energized RLM was evaluated as follows: RLM (0.5 mg protein/mL) were incubated with AntiOxBENs at 37° C. under constant stirring in 1 mL of KCl medium (120 mM KCl, 10 mM HEPES, pH 7.2 and 1 mM EGTA). Five sequential 1 μM additions of each AntiOxBENs were performed to calibrate the electrode response in the presence of rotenone (1.5 μM). Then, succinate (10 mM) was added to generate […]. Valinomicin (0.2 μg/mL) was added at the end of the assay to dissipate Δψ. The measurements were performed with an ion-selective electrode, which measure the distribution of tetraphenylphosphonium cation (TPP+) and Ag/AgCl2 electrode as reference. The mitochondrial accumulation ratio was calculated by the disappearance of AntiOxBENs from extra- to intramitochondrial medium assuming an intramitochondrial volume of 0.5 μL/mg protein and a binding correction for the mitochondrial uptake of TPP compounds.

The test system of data set [7] is rat liver mitochondria (RLM) membranes. As to the kind of experiment: RLM lipid peroxidation, TBARS assay (FeSO4/H2O2/ascorbate). The conditions noted are these: 5 μM, FeSO4/H2O2/ascorbate.

Take `O=C(NCCCCCC[P+](c1ccccc1)(c1ccccc1)c1ccccc1)c1ccc(O)c(O)c1.[Br-]` [AntiOxBEN1, 6-(3,4-dihydroxybenzamido)hexyltriphenylphosphonium bromide]: the “Ep (redox potential)” value in data set [1] turned out to be 0.224 V. The “toxicity / effect on HepG2 cell proliferation” value in data set [2] (HepG2, 48 hour, 25 μM to 500 μM, SRB) is “small inhibition of cell proliferation for lower concentrations”. Besides, the “concentrations at which cell proliferation was stimulated” value in data set [2] (HepG2, 48 hour, SRB) was “higher than 100 μM”. Also, the IC50 was determined as 27.3 µM in data set [3], 29.9 µM in data set [4] and 4.3 µM in data set [5]. For the same compound, in data set [6] (energised RLM, succinate), the “accumulation ratio by rat liver mitochondria” value (from here on “accumulation ratio”) is listed as “AntiOxBEN2<AntiOxBEN1<AntiOxBEN3”. Also, in data set [7], the “prevention of TBARS formation / mitochondria lipid peroxidation” value was “not effective”.
Turning to `O=C(NCCCCCC[P+](c1ccccc1)(c1ccccc1)c1ccccc1)c1cc(O)c(O)c(O)c1.[Br-]` [AntiOxBEN2, 6-(3,4,5-trihydroxybenzamido)hexyltriphenylphosphonium bromide], the “Ep (redox potential)” value in data set [1] (listed as MitoBEN2) was 0.168 V. The “concentrations at which cell proliferation was stimulated” value in data set [2] (HepG2, 48 hour, SRB) is given as “lower than 250 μM”. Besides, the IC50 in data set [3] came to 18.3 µM; in data set [4], 10.3 µM; in data set [5], 3 µM. In addition, in data set [6] (energised RLM, succinate), the “accumulation ratio” value is “AntiOxBEN2<AntiOxBEN1<AntiOxBEN3”. The “prevention of TBARS formation / mitochondria lipid peroxidation” value in data set [7] is “most effective”.
Consider `O=C(CCCCC[P+](c1ccccc1)(c1ccccc1)c1ccccc1)NCCCCCCNC(=O)c1cc(O)c(O)c(O)c1.[Br-]` [AntiOxBEN3, [5-(6-(3,4,5-trihydroxybenzamido)hexylamino)carbonylpentyl]triphenylphosphonium bromide], for which, in data set [1] (listed as MitoBEN3), the “Ep (redox potential)” value is listed as 0.164 V. In addition, the “concentrations at which cell proliferation was significantly inhibited” value in data set [2] (human, 48 h) is “higher than 250 μM”. Moreover, the IC50 in data set [3] was found to be 18.7 µM; in data set [4], 9.6 µM; in data set [5] it was 3.4 µM. In data set [6] (rat, 5 μM, pH 7.2), the “accumulation ratio” value was “AntiOxBEN2<AntiOxBEN1<AntiOxBEN3”. In addition, the “prevention of TBARS formation / mitochondria lipid peroxidation” value in data set [7] is reported as “most effective”.
